13 molecules from patent US20260070945A1, “MACROCYCLIC IMMUNOMODULATORS” (Bristol-Myers Squibb Company, priority 2022, published 2026) can be followed below.

Molecules are shown by their SMILES. *1 amine or outer side, *2 acyl side, *3 side chain or, on linkers, in order; H or OH if unused. Where a SMILES comes first, the peptide text is derived from it. Bridges are numbered along the chain shown (N, C = ends). [ ]: non-standard residue; d: D form. The star is where a group is joined. ξ: configuration not given here. Phe(4-COOH) = N[C@@H](Cc1ccc(C(=O)O)cc1)C(=O)O; Bip = N[C@@H](Cc1ccc(-c2ccccc2)cc1)C(=O)O; Phe(3-Me) = Cc1cccc(C[C@H](N)C(=O)O)c1; X14 = O=C([C@H](CCCCO)N[*:1])[*:2]; hArg = N=C(N)NCCCC[C@H](N)C(=O)O; 4Pal = N[C@@H](Cc1ccncc1)C(=O)O; Aad = N[C@@H](CCCC(=O)O)C(=O)O; Cha = N[C@@H](CC1CCCCC1)C(=O)O; Cit = NC(=O)NCCC[C@H](N)C(=O)O; Ile(3ξ) = CCC(C)[C@H](N)C(=O)O; Thr(3ξ) = CC(O)[C@H](N)C(=O)O; hSer = N[C@@H](CCO)C(=O)O; Carboxymethyl = O=C(O)C*; NMeA = CN[C@@H](C)C(=O)O; Orn = NCCC[C@H](N)C(=O)O; Aun = NCCCCCCCCCCC(=O)O; Dab = NCC[C@H](N)C(=O)O; AEEA = NCCOCCOCC(=O)O

T1 sequence (Q15116 25-288): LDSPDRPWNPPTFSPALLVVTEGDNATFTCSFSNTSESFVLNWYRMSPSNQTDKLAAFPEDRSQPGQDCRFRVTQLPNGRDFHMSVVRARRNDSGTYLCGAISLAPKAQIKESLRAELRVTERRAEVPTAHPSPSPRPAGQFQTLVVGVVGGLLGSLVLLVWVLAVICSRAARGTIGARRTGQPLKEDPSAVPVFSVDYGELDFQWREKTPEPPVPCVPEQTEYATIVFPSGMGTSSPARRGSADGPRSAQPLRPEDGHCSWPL

The experiment addresses T1, PD-1/PD-L1 interaction (PE-labeled human PD-L1-Ig binding to Jurkat cell line over-expressing human PD-1) (Homo sapiens, UniProt Q15116).
T1 construct: expressed in transfected cells; host or cells: Jurkat
Put plainly: Jurkat-PD-1 Cell Binding High-Content Screening Assay (CBA). The settings on record: Jurkat-hPD-1 cells, PE-labeled PD-L1-Ig 20 nM final; read-out: Jurkat HPD1 PDL1 IC50. The essentials:
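Read-out: high-content imaging of cell-bound PE fluorescence, with Hoechst 33342 nuclear counterstain after paraformaldehyde fixation. Before labeled ligand (20 nM final, 1 h) was added, compound sat on the cells for 2 h at 37 °C in DMEM/10% FCS.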
For orientation: IC50 means the concentration that inhibits the measured activity by half. With `CCC(C)[C@@H]1NC(=O)[C@H](Cc2ccc(-c3ccccc3)cc2)NC(=O)[C@H](CC(C)C)NC(=O)[C@H](Cc2c[nH]c3ccccc23)NC(=O)[C@H](CC(=O)O)NC(=O)[C@H](Cc2ccc(OCC(=O)O)cc2)NC(=O)[C@H](CCCCNC(=N)N)NC(=O)CSC[C@@H](C(=O)N[C@@H](CCN)C(=O)NCCOCCOCC(=O)NCCCCCCCCCCC(=O)O)NC(=O)[C@H](CCCCN)NC(=O)[C@H](C(C)C)NC(=O)[C@H](CC2CCCCC2)NC(=O)[C@H](CCN)NC(=O)[C@H]2CCCN2C(=O)[C@H](C)N(C)C1=O` (stereo partly shown) [Example 2206] ({CH2CO}-[hArg]Y(Carboxymethyl)DWL[Bip][Ile(3ξ)][NMeA][dP][Dab][Cha]VKC[Dab][AEEA][Aun]-OH; thioether N-14), the IC50 turned out to be 83.7 nM.
With `CC(C)C[C@@H]1NC(=O)[C@H](Cc2c[nH]c3ccccc23)NC(=O)[C@H](CC(=O)O)NC(=O)[C@H](Cc2ccc(C(=O)O)cc2)NC(=O)[C@H](Cc2ccc(OCC(=O)O)cc2)NC(=O)CSC[C@@H](C(=O)N[C@@H](CCN)C(=O)NCCOCCOCC(=O)NCCCCCCCCCCC(=O)O)NC(=O)[C@H](CCCCN)NC(=O)[C@H](C(C)C)NC(=O)[C@H](CC2CCCCC2)NC(=O)[C@H](CCN)NC(=O)[C@@H](C)NC(=O)[C@H](C)N(C)C(=O)[C@H](C(C)C)NC(=O)[C@H](Cc2ccc(-c3ccccc3)cc2)NC1=O` [Example 2207] ({CH2CO}-Y(Carboxymethyl)[Phe(4-COOH)]DWL[Bip]V[NMeA][dA][Dab][Cha]VKC[Dab][AEEA][Aun]-OH; thioether N-14) the figure was 9.9 nM; with `CCC(C)[C@@H]1NC(=O)[C@H](Cc2ccc(-c3ccccc3)cc2)NC(=O)[C@H](C(C)C)NC(=O)[C@H](Cc2c[nH]c3ccccc23)NC(=O)[C@H](CC(=O)O)NC(=O)[C@H](Cc2ccc(OCC(=O)O)cc2)NC(=O)[C@H](C(C)O)NC(=O)CSC[C@@H](C(=O)N[C@H](CC(N)=O)C(=O)NCCOCCOCC(=O)NCCCCCCCCCCC(=O)O)NC(=O)[C@H](CCCCN)NC(=O)[C@H](C(C)C)NC(=O)[C@H](CC2CCCCC2)NC(=O)[C@H](CCN)NC(=O)[C@@H](CC(C)C)NC(=O)[C@H](C)N(C)C1=O` (stereo partly drawn) [Example 2208] ({CH2CO}-[Thr(3ξ)]Y(Carboxymethyl)DWV[Bip][Ile(3ξ)][NMeA][dL][Dab][Cha]VKC[dN][AEEA][Aun]-OH; thioether N-14), 24.7 nM; with `CCC(C)[C@@H]1NC(=O)[C@H](Cc2ccc(-c3ccccc3)cc2)NC(=O)[C@H](C(C)C)NC(=O)[C@H](Cc2c[nH]c3ccccc23)NC(=O)[C@H](CC(=O)O)NC(=O)[C@H](Cc2ccc(OCC(=O)O)cc2)NC(=O)[C@H](C(C)O)NC(=O)CSC[C@@H](C(=O)N[C@H](CC(N)=O)C(=O)NCCCCCCCCCCC(=O)O)NC(=O)[C@H](CO)NC(=O)[C@H](C(C)C)NC(=O)[C@H](CC2CCCCC2)NC(=O)[C@H](CCN)NC(=O)[C@@H](CC(C)C)NC(=O)[C@H](C)N(C)C1=O` (stereo partly drawn) [Example 2209] ({CH2CO}-[Thr(3ξ)]Y(Carboxymethyl)DWV[Bip][Ile(3ξ)][NMeA][dL][Dab][Cha]VSC[dN][Aun]-OH; thioether N-14), 15.6 nM.
With `CCC(C)[C@@H]1NC(=O)[C@H](Cc2ccc(-c3ccccc3)cc2)NC(=O)[C@H](C(C)C)NC(=O)[C@H](Cc2c[nH]c3ccccc23)NC(=O)[C@H](CC(=O)O)NC(=O)[C@H](Cc2ccc(OCC(=O)O)cc2)NC(=O)[C@H](C(C)O)NC(=O)CSC[C@@H](C(=O)N[C@H](CC(N)=O)C(=O)NCCCCCCCCCCC(=O)O)NC(=O)[C@H](CCCCN)NC(=O)[C@H](C(C)C)NC(=O)[C@H](CC2CCCCC2)NC(=O)[C@H](CCN)NC(=O)[C@@H](CC(C)C)NC(=O)[C@H](C)N(C)C1=O` (stereo partly drawn) [Example 2210] ({CH2CO}-[Thr(3ξ)]Y(Carboxymethyl)DWV[Bip][Ile(3ξ)][NMeA][dL][Dab][Cha]VKC[dN][Aun]-OH; thioether N-14) the figure was 10 nM; with `Cc1cccc(C[C@@H]2NC(=O)[C@H](CC(=O)O)NC(=O)[C@H](Cc3ccc(OCC(=O)O)cc3)NC(=O)[C@H](CCCNC(=N)N)NC(=O)CSC[C@@H](C(=O)N[C@@H](CCN)C(=O)NCCCCCCCCCCC(=O)O)NC(=O)[C@H](C(C)O)NC(=O)[C@H](C(C)C)NC(=O)[C@H](CC3CCCCC3)NC(=O)[C@H](CCN)NC(=O)[C@@H](CC(C)C)NC(=O)[C@H](C)N(C)C(=O)[C@H](CCCNC(N)=O)NC(=O)[C@H](Cc3ccc(-c4ccccc4)cc3)NC(=O)[C@H](C(C)C)NC2=O)c1` (stereo partly drawn) [Example 2211] ({CH2CO}-RY(Carboxymethyl)D[Phe(3-Me)]V[Bip][Cit][NMeA][dL][Dab][Cha]V[Thr(3ξ)]C[Dab][Aun]-OH; thioether N-14), 8.5 nM.
The same measure for `Cc1cccc(C[C@@H]2NC(=O)[C@H](CC(=O)O)NC(=O)[C@H](Cc3ccc(OCC(=O)O)cc3)NC(=O)[C@H](CCCNC(=N)N)NC(=O)CSC[C@@H](C(=O)N[C@@H](CCN)C(=O)NCCCCCCCCCCC(=O)O)NC(=O)[C@H](CCCCN)NC(=O)[C@H](C(C)C)NC(=O)[C@H](CC3CCCCC3)NC(=O)[C@H](CCN)NC(=O)[C@@H](CC(C)C)NC(=O)[C@H](C)N(C)C(=O)[C@H](CCCNC(N)=O)NC(=O)[C@H](Cc3ccc(-c4ccccc4)cc3)NC(=O)[C@H](C(C)C)NC2=O)c1` [Example 2212] ({CH2CO}-RY(Carboxymethyl)D[Phe(3-Me)]V[Bip][Cit][NMeA][dL][Dab][Cha]VKC[Dab][Aun]-OH; thioether N-14): 16.1 nM; for `Cc1cccc(C[C@@H]2NC(=O)[C@H](CC(=O)O)NC(=O)[C@H](Cc3ccc(C(=O)O)cc3)NC(=O)[C@H](Cc3ccc(OCC(=O)O)cc3)NC(=O)CSC[C@@H](C(=O)NCCOCCOCC(=O)NCCCCCCCCCCC(=O)O)NC(=O)[C@H](CCCCO)NC(=O)[C@H](C(C)C)NC(=O)[C@H](CC3CCCCC3)NC(=O)[C@H](CCN)NC(=O)[C@@H](CC(C)C)NC(=O)[C@H](C)N(C)C(=O)[C@H](Cc3ccc(O)cc3)NC(=O)[C@H](Cc3ccc(-c4ccccc4)cc3)NC(=O)[C@H](C(C)C)NC2=O)c1` [Example 2213] ({CH2CO}-Y(Carboxymethyl)[Phe(4-COOH)]D[Phe(3-Me)]V[Bip]Y[NMeA][dL][Dab][Cha]V[X14]C[AEEA][Aun]-OH; thioether N-14): 14.4 nM; for `Cc1cccc(C[C@@H]2NC(=O)[C@H](CC(=O)O)NC(=O)[C@H](Cc3ccc(C(=O)O)cc3)NC(=O)[C@H](Cc3ccc(OCC(=O)O)cc3)NC(=O)CSC[C@@H](C(=O)N[C@@H](CCN)C(=O)NCCCCCCCCCCC(=O)O)NC(=O)[C@H](CCCC(=O)O)NC(=O)[C@H](C(C)C)NC(=O)[C@H](CC3CCCCC3)NC(=O)[C@H](CCN)NC(=O)[C@@H](CC(C)C)NC(=O)[C@H](C)N(C)C(=O)[C@H](C(C)C)NC(=O)[C@H](Cc3ccc(-c4ccccc4)cc3)NC(=O)[C@H](C(C)C)NC2=O)c1` [Example 2214] ({CH2CO}-Y(Carboxymethyl)[Phe(4-COOH)]D[Phe(3-Me)]V[Bip]V[NMeA][dL][Dab][Cha]V[Aad]C[Dab][Aun]-OH; thioether N-14): 16.3 nM.
Turning to `Cc1cccc(C[C@@H]2NC(=O)[C@H](CC(=O)O)NC(=O)[C@H](Cc3c[nH]cn3)NC(=O)[C@H](Cc3ccc(OCC(=O)O)cc3)NC(=O)CSC[C@@H](C(=O)N[C@@H](CCN)C(=O)NCCCCCCCCCCC(=O)O)NC(=O)[C@H](CCCC(=O)O)NC(=O)[C@H](C(C)C)NC(=O)[C@H](CC3CCCCC3)NC(=O)[C@H](CCN)NC(=O)[C@@H](CC(C)C)NC(=O)[C@H](C)N(C)C(=O)[C@H](C(C)C)NC(=O)[C@H](Cc3ccc(-c4ccccc4)cc3)NC(=O)[C@H](C(C)C)NC2=O)c1` [Example 2215] ({CH2CO}-Y(Carboxymethyl)HD[Phe(3-Me)]V[Bip]V[NMeA][dL][Dab][Cha]V[Aad]C[Dab][Aun]-OH; thioether N-14), the IC50 amounted to 9.2 nM.
The same measure for `Cc1cccc(C[C@@H]2NC(=O)[C@H](CC(=O)O)NC(=O)[C@H](Cc3ccc(C(=O)O)cc3)NC(=O)[C@H](Cc3ccc(OCC(=O)O)cc3)NC(=O)CSC[C@@H](C(=O)NCCCCCCCCCCC(=O)O)NC(=O)[C@H](CCCNC(N)=O)NC(=O)[C@H](C(C)C)NC(=O)[C@H](CC3CCCCC3)NC(=O)[C@H](CCN)NC(=O)[C@@H](CC(C)C)NC(=O)[C@H](C)N(C)C(=O)[C@H](C(C)C)NC(=O)[C@H](Cc3ccc(-c4ccccc4)cc3)NC(=O)[C@H](C(C)C)NC2=O)c1` [Example 2216] ({CH2CO}-Y(Carboxymethyl)[Phe(4-COOH)]D[Phe(3-Me)]V[Bip]V[NMeA][dL][Dab][Cha]V[Cit]C[Aun]-OH; thioether N-14): 13.9 nM; for `Cc1cccc(C[C@@H]2NC(=O)[C@H](CC(=O)O)NC(=O)[C@H](Cc3ccc(C(=O)O)cc3)NC(=O)[C@H](Cc3ccc(OCC(=O)O)cc3)NC(=O)CSC[C@@H](C(=O)NCCOCCOCC(=O)NCCCCCCCCCCC(=O)O)NC(=O)[C@H](CCO)NC(=O)[C@H](C(C)C)NC(=O)[C@H](CC3CCCCC3)NC(=O)[C@H](CCN)NC(=O)[C@@H](CC(C)C)NC(=O)[C@H](C)N(C)C(=O)[C@H](C(C)C)NC(=O)[C@H](Cc3ccc(-c4ccccc4)cc3)NC(=O)[C@H](C(C)C)NC2=O)c1` [Example 2217] ({CH2CO}-Y(Carboxymethyl)[Phe(4-COOH)]D[Phe(3-Me)]V[Bip]V[NMeA][dL][Dab][Cha]V[hSer]C[AEEA][Aun]-OH; thioether N-14): 11.5 nM; for `Cc1cccc(C[C@@H]2NC(=O)[C@H](CC(=O)O)NC(=O)[C@H](Cc3ccc(OCC(=O)O)cc3)NC(=O)[C@H](Cc3ccncc3)NC(=O)CSC[C@@H](C(=O)NCCOCCOCC(=O)NCCCCCCCCCCC(=O)O)NC(=O)[C@H](CCCN)NC(=O)[C@H](C(C)C)NC(=O)[C@H](CC3CCCCC3)NC(=O)[C@H](CCN)NC(=O)[C@@H](CC(C)C)NC(=O)[C@H](C)N(C)C(=O)[C@H](Cc3ccc(O)cc3)NC(=O)[C@H](Cc3ccc(-c4ccccc4)cc3)NC(=O)[C@H](CC(C)C)NC2=O)c1` [Example 2218] ({CH2CO}-[4Pal]Y(Carboxymethyl)D[Phe(3-Me)]L[Bip]Y[NMeA][dL][Dab][Cha]V[Orn]C[AEEA][Aun]-OH; thioether N-14): 33.3 nM.
